{
  "source": "the supplement of paper PMC10307832",
  "experiment_in_all_cases": "relative viability (nuclei count vs DMSO), 5 days (fraction); higher = more cells survive",
  "key": {"HCC-78": {"tested_on": "HCC-78", "method_in_brief": "(§1)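 Lung cancer cell lines in 1536-well plates were dosed by pin tool the day after seeding, either with one drug alone or with a fixed anchor-drug dose plus five library-drug doses (not always all listed) in √10 steps. After 5 days, cells were fixed and their nuclei stained in one step (final 0.05% Triton X-100, 1% formaldehyde, 1 ug/ml Hoechst), then counted on 4× images. Relative viability is the nuclei count in treated wells divided by that in vehicle wells. Values are medians of duplicate plates.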"}, "COR-L 105": {"tested_on": "COR-L 105", "method_in_brief": "as §1"}, "NCI-H23": {"tested_on": "NCI-H23", "method_in_brief": "as §1"}, "NCI-H2405": {"tested_on": "NCI-H2405", "method_in_brief": "as §1"}, "NCI-H647": {"tested_on": "NCI-H647", "method_in_brief": "as §1"}, "HCC-827": {"tested_on": "HCC-827", "method_in_brief": "as §1"}, "LCLC-97TM1": {"tested_on": "LCLC-97TM1", "method_in_brief": "as §1"}, "NCI-H322M": {"tested_on": "NCI-H322M", "method_in_brief": "as §1"}, "NCI-H2087": {"tested_on": "NCI-H2087", "method_in_brief": "as §1"}, "NCI-H2347": {"tested_on": "NCI-H2347", "method_in_brief": "as §1"}, "NCI-H1915": {"tested_on": "NCI-H1915", "method_in_brief": "as §1"}, "H3255": {"tested_on": "H3255", "method_in_brief": "as §1"}},
  "data": [
    {"smiles": "C=C1C(=O)O[C@@H](CCCCCCCC)[C@@H]1C(=O)O", "note": "[C-75] + C[C@@H](Oc1cc(-c2cnn(C3CCNCC3)c2)cnc1N)c1c(Cl)ccc(F)c1Cl [Crizotinib] (partner 1 µM)", "values": [
      {"measurement": "relative viability", "setting": "HCC-78; first compound 0.8 µM", "value": 0.36},
      {"measurement": "relative viability", "setting": "HCC-78; first compound 2.53 µM", "value": 0.308},
      {"measurement": "relative viability", "setting": "HCC-78; first compound 8 µM", "value": 0.4},
      {"measurement": "relative viability", "setting": "COR-L 105; first compound 0.08 µM", "value": 0.707},
      {"measurement": "relative viability", "setting": "COR-L 105; first compound 0.253 µM", "value": 0.808},
      {"measurement": "relative viability", "setting": "COR-L 105; first compound 0.8 µM", "value": 0.949},
      {"measurement": "relative viability", "setting": "COR-L 105; first compound 2.53 µM", "value": 0.921},
      {"measurement": "relative viability", "setting": "COR-L 105; first compound 8 µM", "value": 0.566},
      {"measurement": "relative viability", "setting": "NCI-H23; first compound 0.08 µM", "value": 0.509},
      {"measurement": "relative viability", "setting": "NCI-H23; first compound 0.253 µM", "value": 0.579},
      {"measurement": "relative viability", "setting": "NCI-H23; first compound 0.8 µM", "value": 0.522},
      {"measurement": "relative viability", "setting": "NCI-H23; first compound 2.53 µM", "value": 0.507},
      {"measurement": "relative viability", "setting": "NCI-H23; first compound 8 µM", "value": 0.534},
      {"measurement": "relative viability", "setting": "NCI-H2405; first compound 0.08 µM", "value": 0.825},
      {"measurement": "relative viability", "setting": "NCI-H2405; first compound 0.253 µM", "value": 0.683},
      {"measurement": "relative viability", "setting": "NCI-H2405; first compound 0.8 µM", "value": 0.796},
      {"measurement": "relative viability", "setting": "NCI-H2405; first compound 2.53 µM", "value": 0.785},
      {"measurement": "relative viability", "setting": "NCI-H2405; first compound 8 µM", "value": 0.868},
      {"measurement": "relative viability", "setting": "NCI-H647; first compound 0.08 µM", "value": 1.06},
      {"measurement": "relative viability", "setting": "NCI-H647; first compound 0.253 µM", "value": 1.05},
      {"measurement": "relative viability", "setting": "NCI-H647; first compound 2.53 µM", "value": 0.842},
      {"measurement": "relative viability", "setting": "NCI-H647; first compound 8 µM", "value": 0.603},
      {"measurement": "relative viability", "setting": "HCC-827; first compound 0.08 µM", "value": 0.917},
      {"measurement": "relative viability", "setting": "HCC-827; first compound 0.253 µM", "value": 0.88},
      {"measurement": "relative viability", "setting": "HCC-827; first compound 0.8 µM", "value": 0.872},
      {"measurement": "relative viability", "setting": "HCC-827; first compound 2.53 µM", "value": 0.973},
      {"measurement": "relative viability", "setting": "HCC-827; first compound 8 µM", "value": 0.946},
      {"measurement": "relative viability", "setting": "LCLC-97TM1; first compound 0.08 µM", "value": 0.274},
      {"measurement": "relative viability", "setting": "LCLC-97TM1; first compound 0.253 µM", "value": 0.461},
      {"measurement": "relative viability", "setting": "LCLC-97TM1; first compound 0.8 µM", "value": 0.328},
      {"measurement": "relative viability", "setting": "LCLC-97TM1; first compound 2.53 µM", "value": 0.253},
      {"measurement": "relative viability", "setting": "LCLC-97TM1; first compound 8 µM", "value": 0.29},
      {"measurement": "relative viability", "setting": "NCI-H322M; first compound 0.08 µM", "value": 0.977},
      {"measurement": "relative viability", "setting": "NCI-H322M; first compound 0.253 µM", "value": 1.19},
      {"measurement": "relative viability", "setting": "NCI-H322M; first compound 0.8 µM", "value": 0.919},
      {"measurement": "relative viability", "setting": "NCI-H322M; first compound 2.53 µM", "value": 0.971},
      {"measurement": "relative viability", "setting": "NCI-H322M; first compound 8 µM", "value": 0.973},
      {"measurement": "relative viability", "setting": "NCI-H2087; first compound 0.08 µM", "value": 0.942},
      {"measurement": "relative viability", "setting": "NCI-H2087; first compound 0.253 µM", "value": 0.563},
      {"measurement": "relative viability", "setting": "NCI-H2087; first compound 0.8 µM", "value": 0.837},
      {"measurement": "relative viability", "setting": "NCI-H2087; first compound 2.53 µM", "value": 0.608},
      {"measurement": "relative viability", "setting": "NCI-H2087; first compound 8 µM", "value": 0.711},
      {"measurement": "relative viability", "setting": "NCI-H2347; first compound 0.08 µM", "value": 0.735},
      {"measurement": "relative viability", "setting": "NCI-H2347; first compound 0.253 µM", "value": 0.752},
      {"measurement": "relative viability", "setting": "NCI-H2347; first compound 0.8 µM", "value": 0.63},
      {"measurement": "relative viability", "setting": "NCI-H2347; first compound 2.53 µM", "value": 0.711},
      {"measurement": "relative viability", "setting": "NCI-H2347; first compound 8 µM", "value": 0.648},
      {"measurement": "relative viability", "setting": "NCI-H1915; first compound 0.08 µM", "value": 0.924},
      {"measurement": "relative viability", "setting": "NCI-H1915; first compound 0.253 µM", "value": 0.914},
      {"measurement": "relative viability", "setting": "NCI-H1915; first compound 0.8 µM", "value": 0.879},
      {"measurement": "relative viability", "setting": "NCI-H1915; first compound 2.53 µM", "value": 0.819},
      {"measurement": "relative viability", "setting": "NCI-H1915; first compound 8 µM", "value": 0.804},
      {"measurement": "relative viability", "setting": "H3255; first compound 0.08 µM", "value": 0.909},
      {"measurement": "relative viability", "setting": "H3255; first compound 0.253 µM", "value": 0.932},
      {"measurement": "relative viability", "setting": "H3255; first compound 0.8 µM", "value": 0.875},
      {"measurement": "relative viability", "setting": "H3255; first compound 2.53 µM", "value": 0.841},
      {"measurement": "relative viability", "setting": "H3255; first compound 8 µM", "value": 0.843}
    ]}
  ]
}
